Test results from patent publication US8778964B2, “Hydroxy-substituted imidazo[1,2-a]-pyridinecarboxamides and their use” (Bayer Pharma Aktiengesellschaft, priority 2012, dated 2014).
Where a name gives a salt, the structure may show the parent alone.

System: recombinant guanylate cyclase reporter cell line
Assay: Action on recombinant guanylate cyclase reporter cell line (MEC)
Assay type: cell-based
Details: in some cases mean values obtained from individual determinations
In short: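 Cell-based reporter assay with recombinant guanylate cyclase expressed in a reporter cell line, per a published method. Activity reported as minimal effective concentration (MEC), in some cases as the mean of individual determinations.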

Structure (SMILES)	minimal effective concentration
Cc1nc2c(OCc3c(F)cccc3F)cccn2c1C(=O)NC(C)C(O)C(F)(F)F (single isomer, unassigned) [Example 143, 8-[(2,6-Difluorobenzyl)oxy]-2-methyl-N-(4,4,4-trifluoro-3-hydroxybutan-2-yl)imidazo[1,2-a]-pyridine-3-carboxamide]	0.03 µM
Cc1nc2c(OCC3CCCCC3)cccn2c1C(=O)N[C@H](CO)C(C)C [Example 93, 8-(cyclohexylmethoxy)-N-[(2S)-1-hydroxy-3-methylbutan-2-yl]-2-methylimidazo[1,2-a]pyridine-3-carboxamide]	1 µM
Cc1nc2c(OCc3ccccc3F)cccn2c1C(=O)NC(CO)CO [Example 51, N-(1,3-dihydroxypropan-2-yl)-8-[(2-fluorobenzyl)oxy]-2-methylimidazo[1,2-a]pyridine-3-carboxamide]	5.5 µM
Cc1cc(OCCC(C(F)(F)F)C(F)(F)F)c2nc(C)c(C(=O)NCC(O)c3ccc(Cl)cc3)n2c1 (racemic) [Example 175, rac-N-[2-(4-chlorophenyl)-2-hydroxyethyl]-2,6-dimethyl-8-[4,4,4-trifluoro-3-(trifluoromethyl)butoxy]imidazo[1,2-a]pyridine-3-carboxamide]	3 µM
Cc1nc2c(OCc3ccccc3Br)cccn2c1C(=O)NC(CO)CO [Example 54, 8-[(2-bromobenzyl)oxy]-N-(1,3-dihydroxypropan-2-yl)-2-methylimidazo[1,2-a]pyridine-3-carboxamide]	10 µM
Cc1nc2c(OCc3c(F)cccc3F)cccn2c1C(=O)NC(C)C(O)C(F)(F)F (single isomer, unassigned) [Example 146, 8-[(2,6-Difluorobenzyl)oxy]-2-methyl-N-(4,4,4-trifluoro-3-hydroxybutan-2-yl)imidazo[1,2-a]-pyridine-3-carboxamide]	1.0 µM
C=CCC(CO)NC(=O)c1c(C)nc2c(OCC3CCCCC3)cccn12 (racemic) [Example 70, (rac)-8-(cyclohexylmethoxy)-N-(1-hydroxypent-4-en-2-yl)-2-methylimidazo[1,2-a]pyridine-3-carboxamide]	0.1 µM
CCCC[C@H](CO)NC(=O)c1c(C)nc2c(OCc3cccc4c3OC(F)(F)O4)cccn12 [Example 12, 8-[(2,2-difluoro-1,3-benzodioxol-4-yl)methoxy]-N-[(2R)-1-hydroxyhexan-2-yl]-2-methylimidazo[1,2-a]-pyridine-3-carboxamide]	3 µM
CCCC[C@H](CO)NC(=O)c1c(C)nc2c(OCCC(C)C)cc(C)cn12 [Example 166, N-[(2R)-1-Hydroxyhexan-2-yl]-2,6-dimethyl-8-(3-methylbutoxy)imidazo[1,2-a]pyridine-3-carboxamide]	1 µM
Cc1nc2c(OCc3c(F)cccc3F)cccn2c1C(=O)NCC(O)C(F)(F)F (single isomer, unassigned; ent-8) [Example 109, ent-8-[(2,6-Difluorobenzyl)oxy]-2-methyl-N-(3,3,3-trifluoro-2-hydroxypropyl)imidazo[1,2-a]-pyridine-3-carboxamide]	0.1 µM
Cc1cc(OCCC(C(F)(F)F)C(F)(F)F)c2nc(C)c(C(=O)NC(CCCC(F)(F)F)C(C)(C)O)n2c1 (racemic) [Example 170, rac-2,6-Dimethyl-N-(7,7,7-trifluoro-2-hydroxy-2-methylheptan-3-yl)-8-[4,4,4-trifluoro-3-(trifluoromethyl)butoxy]imidazo[1,2-a]pyridine-3-carboxamide]	3 µM
Cc1nc2c(OCc3c(F)cccc3F)cccn2c1C(=O)NCC(O)C(F)(F)F (racemic) [Example 106, rac-8-[(2,6-difluorobenzyl)oxy]-2-methyl-N-(3,3,3-trifluoro-2-hydroxypropyl)imidazo[1,2-a]pyridine-3-carboxamide trifluoroacetate]	0.3 µM
CCCC[C@H](CO)NC(=O)c1c(C)nc2c(OCc3ccccc3F)cccn12 [Example 5, 8-[(2-fluorobenzyl)-oxy]-N-[(2R)-1-hydroxyhexan-2-yl]-2-methylimidazo[1,2-a]pyridine-3-carboxamide]	0.1 µM
CCCC[C@H](CO)NC(=O)c1cnc2c(OCc3c(F)cccc3F)cccn12 [Example 62, 8-[(2,6-difluorobenzyl)oxy]-N-[(2R)-1-hydroxyhexan-2-yl]imidazo[1,2-a]pyridine-3-carboxamide]	0.3 µM
Cc1nc2c(OCc3c(F)cccc3F)cccn2c1C(=O)NC[C@@H](O)c1ccccc1 [Example 32, 8-[(2,6-difluorobenzyl)oxy]-N-[(2S)-2-hydroxy-2-phenylethyl]-2-methylimidazo[1,2-a]pyridine-3-carboxamide]	1 µM
Cc1nc2c(OCC3CCCCC3)cccn2c1C(=O)NC(C)(C)C(C)O (centres unmarked) [Example 87, 8-(cyclohexylmethoxy)-N-(3-hydroxy-2-methylbutan-2-yl)-2-methylimidazo[1,2-a]pyridine-3-carboxamide]	1 µM
Cc1nc2c(OCc3c(F)cccc3F)cccn2c1C(=O)NC(CCC(F)(F)F)C(C)(C)O (racemic) [Example 149, rac-8-[(2,6-difluorobenzyl)oxy]-2-methyl-N-(6,6,6-trifluoro-2-hydroxy-2-methylhexan-3-yl)imidazo[1,2-a]pyridine-3-carboxamide]	0.1 µM
Cc1nc2c(OCc3c(F)cccc3F)cccn2c1C(=O)N[C@@H](CO)C(C)(C)C [Example 35, 8-[(2,6-difluorobenzyl)oxy]-N-[(2R)-1-hydroxy-3,3-dimethylbutan-2-yl]-2-methylimidazo[1,2-a]-pyridine-3-carboxamide]	0.3 µM
Cc1nc2c(OCc3c(F)cccc3F)cccn2c1C(=O)NC[C@@H]1CCCC[C@H]1O (racemic) [Example 27, (rac)-trans-8-[(2,6-difluorobenzyl)oxy]-N-[(2-hydroxycyclohexyl)methyl]-2-methylimidazo[1,2-a]pyridine-3-carboxamide]	0.3 µM
Cc1nc2c(OCc3c(F)cccc3F)cccn2c1C(=O)NC1(CO)CCCC1 [Example 31, 8-[(2,6-difluorobenzyl)oxy]-N-[1-(hydroxymethyl)cyclopentyl]-2-methylimidazo[1,2-a]pyridine-3-carboxamide]	1 µM
Cc1nc2c(OCc3c(F)cccc3F)cccn2c1C(=O)NC(CO)CC(F)(F)F (racemic) [Example 113, rac-8-[(2,6-Difluorobenzyl)oxy]-2-methyl-N-(4,4,4-trifluoro-1-hydroxybutan-2-yl)imidazo[1,2-a]-pyridine-3-carboxamide]	0.03 µM
CCCC[C@@H](NC(=O)c1c(C)nc2c(OCc3c(F)cccc3F)cccn12)C(O)C(F)(F)F (stereo partly drawn) [Example 142, 8-[(2,6-Difluorobenzyl)oxy]-2-methyl-N-[(3R)-1,1,1-trifluoro-2-hydroxyheptan-3-yl]imidazo[1,2-a]pyridine-3-carboxamide]	0.1 µM
Cc1nc2c(OCc3c(F)cccc3F)cccn2c1C(=O)NC(CO)C(F)(F)F (racemic) [Example 110, rac-8-[(2,6-Difluorobenzyl)oxy]-2-methyl-N-(1,1,1-trifluoro-3-hydroxypropan-2-yl)imidazo[1,2-a]pyridine-3-carboxamide]	0.3 µM
Cc1nc2c(OCC3CCCCC3)cccn2c1C(=O)N[C@@H]1CCCC[C@H]1O (racemic) [Example 78, (rac)-8-(cyclohexylmethoxy)-N-[(trans)-2-hydroxycyclohexyl]-2-methylimidazo[1,2-a]-pyridine-3-carboxamide]	0.3 µM
CC[C@H](CO)NC(=O)c1c(C)nc2c(OCC3CCCCC3)cccn12 [Example 72, 8-(cyclohexylmethoxy)-N-[(2R)-1-hydroxybutan-2-yl]-2-methylimidazo[1,2-a]pyridine-3-carboxamide]	0.1 µM
Cc1nc2c(OCC3CCC3)cccn2c1C(=O)NCCOCCO [Example 98, 8-(cyclobutylmethoxy)-N-[2-(2-hydroxyethoxy)ethyl]-2-methylimidazo[1,2-a]pyridine-3-carboxamide]	3 µM
